Reference: patent publication US20190211024A1 (priority 2016, published 2019)
Values joined by “and” are separate entries in the source; they are usually repeats but may differ in a detail not shown here. Identical values can stand only once. Counter-ions that a name gives are not always drawn.

Test system: influenza virus A/California/07/09 (H1N1) pdm09
Parameters: species or system mice
Conditions: mouse, in vivo

SMILES	Time after infection within which the drug must be administered for greatest efficacy	Mice rescued from infection	Index of protection % (100 mg/kg/day, dihydrate)	AST (average life span of animals) (po, 100 mg/kg/day)	Mortality by day: 7 (po, 100 mg/kg/day)	Mortality by day: 8 (po, 100 mg/kg/day)	Mortality by day: 10 (po, 100 mg/kg/day)	Mortality, % (po, 100 mg/kg/day)
CCOC(=O)C1=C[C@@H](OC(CC)CC)[C@H](NC(C)=O)[C@@H](N)C1 [Tamiflu]	≤ 24 h	–	–	–	–	–	–	–
CSc1nc2[nH]nc([N+](=O)[O-])c(=O)n2n1 [Triazavirin, sodium salt of 2-methylthio-6-nitro-1,2,4-triazolo[5,1-c]1,2,4-triazine-7-one, dihydrate]	–	80%	63% and 62.5%	13.7 cyr.	1	1	1	20.0%
